This test has as its system Laser-induced CNV. As to the kind of experiment: Laser-induced Choroidal Neovascularization (CNV) model. Type of test: in vivo, brown Norway rats. The settings on record: single i-v injection on D0, evaluated D10; r-TFPI 0.2 ug; VIIa-i (Compound A-NO NP) 5.08 ug. The method, then:
For Choroidal Neovascularization (CNV) induction in rats, brown Norway rats were anesthetized and pupils dilated. Argon red laser photocoagulation (50-um spot size, 0.05 sec duration) was used to generate 4 laser spots for each eye surrounding the optic nerve. A bubble forms at the laser spot indicating rupture of Bruch's membrane. The laser spots were evaluated for the presence of CNV on day 10 after laser treatment using confocal microscopy. Administration of test compounds: Immediately after CNV induction, test compounds were given once by intravitreal injection, i-v (VIIa-i versus r-TFPI). For characterization of efficacy in preventing laser-induced CNV in the eyes of rats, the incidence of CNV-positive or CNV-negative spots was determined by confocal microscopy. Rats were perfused with a FITC-dextran solution just prior to sacrifice. After the eyes were excised and choroidal flat mounts prepared, the mounts were stained with a mAb against mouse or rat elastin and then with CY3-conjugated secondary antibody. The prominent neovascular growth stains green whereas the underlying elastin in the Bruch's membrane stains red within the laser spot. The inhibition of new vessel growth is indicated by the absence of vessels with a green stain, and the size of the CNV is measured using Image Pro plus Software. […] Animals were sacrificed on D10, and CNV evaluated as described in methods.

“Also recorded” adds a separate entry of the source.

“r-TFPI: recombinant tissue factor pathway inhibitor”: the “inhibition of laser-induced CNV” value is “highly effective in inhibiting laser-induced CNV; also recorded: significant reduction in neovascular growth”.

Source of the values: patent publication US8980823B2, “Formulations of Factor VIIa inhibitors and utility” (priority 2012, dated 2015).
